Experimental data from patent publication US20240317745A1, “SIGMA-1 RECEPTOR ANTAGONISTS AND THEIR APPLICATIONS” (Humanwell Pharmaceutical US, Inc., priority 2023, published 2024).
Counter-ions that a name gives are not always drawn.

Tests used:
Sigma-1 receptor = Sigma-1 receptor (Cavia porcellus (Guinea pig), UniProt Q60492); experiment: Sigma-1 receptor binding affinity test ([3H]-(+)-pentazocine displacement, guinea pig cerebral cortex membranes); settings: [3H]-(+)-pentazocine 10 nM, 25° C., 180 minutes; read-out: Sigma1R Ki
Description: Guinea pigs (provided by Beijing Vital River Laboratory Animal Technology Co., Ltd.) were decapitated, and the operations were carried out on ice. The cerebral cortex was quickly harvested and pooled into a centrifuge tube. A suitable amount of buffer (0.05M Tris-HCl with 0.32M sucrose) was added to the tube, and the tissue was homogenized using a homogenizer (IKA, Ultra Turrax T25 Digital) at setting 4 for 3˜4 seconds, repeated four times. After homogenization, solution B was added to adjust the volume to 10 mL/g. The weight of the centrifuge tubes was balanced, and then they were centrifuged at 1000 g for 10 minutes using a high-speed refrigerated centrifuge. The supernatant was collected and adjusted to 2 mL/g with solution B, followed by centrifugation at 1000 g and 4° C. for 10 minutes. The supernatant was then centrifuged at 18000 rpm and 4° C. for 25 minutes. The pellet was resuspended in solution B to a final volume of 3 mL/g and incubated in a water bath at 25° C. for 15 minutes. After incubation, the suspension was centrifuged at 18000 rpm and 4° C. for 45 minutes. The pellet was stored at −80° C. for future use.
An appropriate amount of homogenization buffer was added to the prepared membrane, and was dispersed into a suspension using a homogenizer, protein concentration was measured to be 4 mg/ml. 100 micrograms of protein were added to each well of a 96-well plate, with a volume of 90 μl. […] [3H]-(+)-pentazocine (Perkin-Elmer, Cat #NET1056250UC) was added to each well (final concentration of 10 nM). The 96-well plate was incubated in a constant temperature water bath (25° C., 180 minutes). […] After washing, the samples were dried in a 37° C. oven.

[1] = system: motor balance ability of rats; experiment: Rat rotarod test (motor balance ability); type: in vivo; settings: 15 rpm
Description: Placing rats on a continuously rotating rod causes them to move immediately in the opposite direction of the rod's motion. […] During the formal experiment, the time the rats stay on the rotarod is used as an indicator to measure their motor balance ability. This experiment aims to explore the impact of compound 37 at doses ranging from 10 to 300 mg/kg on the motor balance ability of rats in the rotarod test.
After administration of the test substance to the rats, they are placed on the rotarod fatigue tester, and the average time spent on the rod after three tests is recorded and analyzed.
Calculate the Maximum Possible Effect on Motor Balance Ability %: Maximum Possible Effect on Motor Balance Ability %=(1−test group/vehicle)×100%
Note: The motor balance ability of the vehicle group is considered as 0%, and the Maximum Possible Effect on Motor Balance Ability % for each group is calculated based on this standard.

[2] = system: Spinal Nerve Ligation (SNL) model; experiment: Spinal Nerve Ligation (SNL) model, mechanical pain threshold by Von Frey filaments; type: in vivo; settings: rat, oral administration (i.g.), 100 mg/kg, mechanical pain threshold ipsilateral hind paw
Source text: It is a type of chronic pain characterized by features such as spontaneous pain, hyperalgesia, abnormal pain, and sensory disturbances. Following nerve damage, neuropathic pain can persist, and its characteristics include hypersensitive responses to stimuli […], the presence of abnormal sensations (allodynia), and painful responses to non-harmful stimuli […]. The Spinal Nerve Ligation (SNL) model involves the tight ligation of the L5 and L6 spinal nerves using sutures.
In this experiment, pregabalin at a dose of 100 mg/kg was used as a positive control to compare the analgesic effect of the test compound. After administration, the mechanical pain threshold in the ipsilateral hind paw of the rat was tested using Von Frey filaments. The change in mechanical pain threshold before and after administration was used to determine whether the test compound at 100 mg/kg has a neuropathic pain-relieving effect in the SNL model.

Chain of Sigma-1 receptor (Q60492 whole entry): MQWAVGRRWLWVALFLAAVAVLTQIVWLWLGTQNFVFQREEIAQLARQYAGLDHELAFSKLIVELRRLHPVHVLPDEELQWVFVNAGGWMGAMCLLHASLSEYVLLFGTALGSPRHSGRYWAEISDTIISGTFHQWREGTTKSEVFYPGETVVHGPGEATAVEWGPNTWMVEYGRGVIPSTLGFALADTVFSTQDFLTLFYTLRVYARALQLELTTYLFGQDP

## CC1COCC(C)N1CCOCc1cc(-c2ccc(Cl)c(Cl)c2)no1 (centres unmarked) [Compound 77]
Sigma-1 receptor
  Ki: 14.9 nM

## O[C@@H]1CCN(Cc2cc(-c3ccc(Cl)c(Cl)c3)no2)C1 [Compound 43]
Sigma-1 receptor
  Ki: 7.97 nM

## Fc1ccc(-c2cc(CN3CCOCC3)on2)cc1F [Compound 19]
Sigma-1 receptor
  Ki: 172 nM

## OC[C@H]1CCCN1Cc1cc(-c2ccc(Cl)c(Cl)c2)no1 [Compound 44]
Sigma-1 receptor
  Ki: 19 nM

## Cc1cccc([C@H](C)c2cnc[nH]2)c1C [dexmedetomidine hydrochloride injection, dexmedetomidine hydrochloride, reference compound]
[1]; subcutaneous injection 30 μg/kg, 15 minutes prior, vs vehicle
  Maximum Possible Effect on Motor Balance Ability: 62%

## OC[C@@H]1CCCN1Cc1cc(-c2ccc(F)c(F)c2)no1 [Compound 41]
Sigma-1 receptor
  Ki: 34 nM

## O=C1CCN(Cc2cc(-c3ccc(F)c(F)c3)no2)CC1 [Compound 88]
Sigma-1 receptor
  Ki: 959 nM

## OC1CCN(Cc2cc(-c3ccc(F)c(F)c3)no2)CC1 [Compound 37]
[1]; oral 15 minutes prior, 10-300 mg/kg
  change in the time spent on the rotarod compared to the vehicle: no significant change
[1]; oral 15 minutes prior, first of four doses in 10-300 mg/kg
  Maximum Possible Effect on Motor Balance Ability: −6%
[1]; oral 15 minutes prior, fourth of four doses in 10-300 mg/kg
  Maximum Possible Effect on Motor Balance Ability: −6%
[1]; oral 15 minutes prior, second of four doses in 10-300 mg/kg
  Maximum Possible Effect on Motor Balance Ability: 11%
[1]; oral 15 minutes prior, third of four doses in 10-300 mg/kg
  Maximum Possible Effect on Motor Balance Ability: −6%

## OCCC1CCN(Cc2cc(-c3ccc(Cl)c(Cl)c3)no2)CC1 [Compound 47]
Sigma-1 receptor
  Ki: 0.74 nM

## O[C@H]1CCN(Cc2cc(-c3ccc(F)c(F)c3)no2)C1 [Compound 38]
Sigma-1 receptor
  Ki: 378 nM

## Fc1ccc(-c2cc(CN3CC[Se]CC3)on2)cc1F [Compound 20]
Sigma-1 receptor
  Ki: 48.9 nM

## OC[C@H]1CCCN1Cc1cc(-c2ccc(F)c(F)c2)no1 [Compound 40]
Sigma-1 receptor
  Ki: 190 nM

## CC(C)C[C@H](CN)CC(=O)O [Pregabalin, pregabalin]
[2]
  analgesic activity in the SNL model: some analgesic activity
